Experimental data: patent publication US10004754B2, “ANP fragment adjuvant therapy to standard of care (SOC) diuretic treatment” (MADELEINE PHARMACEUTICALS PTY LTD, priority 2014, dated 2018)
Where no end group is shown, it is not given here.

Tests used:
[1] = test system: patients showing either acute exacerbations of chronic CHF or ADCHF; conditions: cited from earlier work
[2] = test system: stable CHF patients; assay: Urine output and fractional excretion of sodium with sc VSDL infusion, Example 2; format: in vivo, human
Protocol: (§1) A second study was conducted with a population of eighteen (18) test adult CHF patients, both male and female, in order to further evaluate the improvement in renal and cardiac function in stable CHF patients given VSDL (by sc administration) in addition to standard of care (SOC) treatment.
(§2) Participants were selected on the basis of the Inclusion and Exclusion criteria given in Example 1. […] In addition, selected patients were required to have a plasma brain natriuretic peptide (BNP) concentration of ≥100 pg/mL and a GFR ≥25 mL/min and <70 mL/min as calculated by the Cockroft Gault calculation (ie moderate renal impairment). On the other hand, the presence of acute MI (ie as indicated by ST elevation and/or elevation of Troponin-T) or evidence of MI or other high risk acute coronary syndrome within the past 6 weeks, hypotension (ie systolic blood pressure (SBP) <90 mmHg), persistent and/or uncontrolled hypertension (SBP>180 mmHg), cardiogenic shock or any other clinical condition that would contraindicate administration of an agent with potent vasodilatory effects, excluded patients from participating in the study. Participants in this study also had standard exclusion criteria that accompany pulmonary artery (SG) catheterisation.
(§3) The study was an open-label, sequential group, continuous sc infusion study conducted at a single centre. Two steady-state concentration levels (Css) of VSDL were targeted, approximately 10 ng/mL (n=2 lead-in, and n=10, cohort 1) and 20 ng/mL (n=6, cohort 2). The two lead-in patients were treated with similar dose regimens to confirm that the measured plasma concentrations were in agreement with the targeted Css. Two patients from cohort 1 and all 6 patients from cohort 2 underwent pulmonary artery Swan-Ganz (SG) catheterisation to enable haemodynamic monitoring.
(§4) VSDL prepared as described in Example 1, was administered via sc 6 or 12 hour infusion into the lower abdomen at a maximum volume rate of 350 μL/hr (ie approximately 6 μL/min). The rate of infusion of VSDL for the targeted Css level of 10 ng/mL was either 900 μg/hr (0.3 mL/hr) for 12 hrs or a bimodal infusion of 900 μg/hr for 5 hrs followed by 550 μg/hr (0.18 mL/hr) for 7 hrs. The rate of infusion of VSDL for the targeted Css level of 20 ng/mL was bimodal; 1800 μg/hr (0.20 mL/hr) for 5 hrs followed by 1100 μg/hr (0.12 mL/hr) for 7 hrs (see WO 2014/138796). For the lead-in patients, the infusions were performed at 900 μg/hr for 6 hrs.
(§5) R Studio (version 4) and GraphPad Prism (GraphPad Software, version 6) were used for all statistical analyses. Statistically significant changes from base line for all parameters were tested using with linear mixed effects model or one-way repeated measures ANOVA with Bonferroni correction. A p value of 0.05 was set for statistically significant differences. All data are reported as mean±s.d or mean (95% CI).

[3] = test system: stable CHF patients; assay: Renal function (eGFR, plasma creatinine, MAG3 clearance) with sc VSDL infusion, Example 2; format: in vivo, human; conditions: for Plasma Creatinine % Change: given without sign, a decrease; for Plasma Creatinine: baseline 161.7 ± 58; for MAG3 Clearance % change: Post-Treatment vs Pre-Treatment
Protocol: as §1, §2, §3, §4, §5
This change was also accompanied by a 10% decrease in plasma creatinine from 162±58 μmol/L at baseline to […] (p≤0.05) during infusion (Table 6).

Sequence: EVVPPQVLSEPNEEAGAALSPLPEVPPWTGEVSPAQR [VSDL]
- side-effects ([1]; in vivo, iv): without side-effects
- outcomes (eg increased cardiac index, drops in pulmonary capillary wedge pressure and blood pressure) ([1]; iv infusion, even with very low doses, WO 2012/019237): improved outcomes
- mean urine output ([2]; 10 ng/ml cohort): 2898 ± 334 mL
- FENa (fractional excretion of sodium) ([2]; 10 ng/ml cohort, during infusion, baseline 2.2±0.3%, not statistically significant): 3.3±0.8%
- FENa (fractional excretion of sodium) ([2]; 10 ng/ml cohort, post infusion, baseline 2.2±0.3%): 2.3±0.3%
- mean urine output ([2]; 20 ng/ml cohort): 3028 ± 301 mL
- FENa (fractional excretion of sodium) ([2]; 20 ng/ml cohort, during infusion, baseline 1.6±0.3%): 2.4±0.8%
- FENa (fractional excretion of sodium) ([2]; 20 ng/ml cohort, post infusion, baseline 1.6±0.3%): 1.6±0.4%
- fluid output (urine volumes from baseline) ([2]; patients treated with VSDL plus SOC): increased
- patients with urine volumes above 3 liters/day ([2]; pooled 10 and 20 ng/ml patients, FIG. 2): more than 50%
- Plasma Creatinine % Change ([3]; >0.5-6 hs vs baseline): (8) %
- Plasma Creatinine ([3]; >0.5-6 hs): 148.5 ± 60 µmol/L
- Plasma Creatinine % Change ([3]; >6-12 hs vs baseline): (10) %
- Plasma Creatinine ([3]; >6-12 hs): 146 ± 60 µmol/L
- eGFR and plasma creatinine in relation to plasma concentration of VSDL ([3]; FIGS. 6A and B): improved with rising circulating levels of VSDL
- MAG3 Clearance, Post (Pre-Treatment) ([3]; Stage 3A CKD): 14 ± 7 ml/min/1.73 m^2
- MAG3 Clearance % change ([3]; Stage 3A CKD): (9) %
- MAG3 Clearance ([3]; Stage 3A CKD, Post-Treatment, Pre-Treatment 148.5 ± 26): 162.5 ± 24 ml/min/1.73 m^2
- MAG3 Clearance, Post (Pre-Treatment) ([3]; Stage 3B CKD): .3 ± 9 ml/min/1.73 m^2
- MAG3 Clearance % change ([3]; Stage 3B CKD): (0) %
- MAG3 Clearance ([3]; Stage 3B CKD, Post-Treatment, Pre-Treatment 164.5 ± 32): 164.8 ± 33 ml/min/1.73 m^2
- MAG3 Clearance, Post (Pre-Treatment) ([3]; Stage 4 CKD): 17 ± 16 ml/min/1.73 m^2
- MAG3 Clearance % change ([3]; Stage 4 CKD): (16) %
- MAG3 Clearance ([3]; Stage 4 CKD, Post-Treatment, Pre-Treatment 106.0 ± 58): 123.3 ± 56 ml/min/1.73 m^2
- eGFR and MAG3 clearance across all classes of CKD ([3]; adjuvant treatment with VSDL): numerical increases
- MAG3 Clearance, Post (Pre-Treatment) ([3]; all patients): 9 ± 12 ml/min/1.73 m^2
- MAG3 Clearance % change ([3]; all patients): (6) %
- MAG3 Clearance ([3]; all patients, Post-Treatment, Pre-Treatment 140.3 ± 44): 148.9 ± 41 ml/min/1.73 m^2
- decrease in plasma creatinine ([3]; during infusion vs baseline): 10%
- improvement in eGFR ([3]; during the 12 hour infusion vs baseline): 16%
- estimated glomerular filtration rate (eGFR) ([3]; during the 12 hour infusion, baseline 38±11, p≤0.05): 44±14 ml/min/1.73 m^2
- eGFR % Change ([3]; eGFR 15-29 (Stage 4 CKD), >0.5-6 hs vs baseline): (23) %
- eGFR ([3]; eGFR 15-29 (Stage 4 CKD), >0.5-6 hs, baseline 23.5 ± 5): 28.8 ± 10 ml/min/1.73 m^2
- eGFR ([3]; eGFR 15-29 (Stage 4 CKD), >6-12 hs, baseline 23.5 ± 5): 30 ± 12 ml/min/1.73 m^2
- eGFR % Change ([3]; eGFR 30 to 44 (Stage 3B CKD), >0.5-6 hs vs baseline): (12) %
- eGFR ([3]; eGFR 30 to 44 (Stage 3B CKD), >0.5-6 hs, baseline 37.7 ± 4): 42.3 ± 10 ml/min/1.73 m^2
- eGFR % Change ([3]; eGFR 30 to 44 (Stage 3B CKD), >6-12 hs vs baseline): (12) %
- eGFR ([3]; eGFR 30 to 44 (Stage 3B CKD), >6-12 hs, baseline 37.7 ± 4): 42.3 ± 10 ml/min/1.73 m^2
- eGFR % Change ([3]; eGFR 45-59 (Stage 3A CKD), >0.5-6 hs vs baseline): (8) %
- eGFR ([3]; eGFR 45-59 (Stage 3A CKD), >0.5-6 hs, baseline 49.8 ± 3): 54.0 ± 4 ml/min/1.73 m^2
- eGFR % Change ([3]; eGFR 45-59 (Stage 3A CKD), >6-12 hs vs baseline): (14) %
- eGFR ([3]; eGFR 45-59 (Stage 3A CKD), >6-12 hs, baseline 49.8 ± 3): 56.6 ± 4 ml/min/1.73 m^2
- renal function (eGFR, MAG3 clearance, plasma creatinine), trend ([3]; lead-in patients, 900 μg/hr sc for 6 hours): improved renal function
- eGFR % Change ([3]; patients with eGFR 15-60, >0.5-6 hs vs baseline): (12) %
- eGFR ([3]; patients with eGFR 15-60, >0.5-6 hs, baseline 37.9 ± 11): 42.6 ± 13 ml/min/1.73 m^2
- eGFR % Change ([3]; patients with eGFR 15-60, >6-12 hs vs baseline): (16) %
- eGFR ([3]; patients with eGFR 15-60, >6-12 hs, baseline 37.9 ± 11): 43.8 ± 14 ml/min/1.73 m^2
- MAG3 Clearance ([3]; post-treatment, pre-treatment 140±44, p≤0.05): 149±41 ml/min/1.73 m^2
